From ChEMBL document CHEMBL5154738, “Design, synthesis and structural-activity relationship studies of phanginin A derivatives for regulating SIK1-cAMP/CREB signaling to suppress hepatic gluconeogenesis” (Eur J Med Chem, 2022)
Calls of active or inactive are those of the source. No cut-off for these calls is given here.

Legend:
[1] = Cytotoxicity against C57BL/6J mouse primary hepatocytes assessed as cell viability at 100 uM incubated for 24 hrs by MTT assay relative to control; type: toxicity, cell-based, Hepatocyte; details: read-out: Activity
[2] = Cytotoxicity against C57BL/6J mouse primary hepatocytes assessed as cell viability at 50 uM incubated for 24 hrs by MTT assay relative to control; type: toxicity, cell-based, Hepatocyte; details: read-out: Activity
[3] = Cytotoxicity against C57BL/6J mouse primary hepatocytes assessed as cell viability at 10 uM incubated for 24 hrs by MTT assay relative to control; type: toxicity, cell-based, Hepatocyte; details: read-out: Activity
[4] = Inhibition of gluconeogenesis in C57BL/6J mouse primary hepatocytes assessed as inhibition of glucagon-stimulated glucose production at 2.5 uM preincubated for 1.5 hrs followed by lactate and pyruvate addition and later stimulated with glucagon for 4 hrs; type: functional; details: Hepatocyte, time 5.5 hrs
[5] = Inhibition of gluconeogenesis in C57BL/6J mouse primary hepatocytes assessed as inhibition of glucagon-stimulated glucose production at 5 uM preincubated for 1.5 hrs followed by lactate and pyruvate addition and later stimulated with glucagon for 4 hrs; type: functional; details: Hepatocyte, time 5.5 hrs
[6] = Cytotoxicity against C57BL/6J mouse primary hepatocytes assessed as cell viability at 200 uM incubated for 24 hrs by MTT assay relative to control; type: toxicity, cell-based, Hepatocyte; details: read-out: Activity
[7] = Inhibition of gluconeogenesis in C57BL/6J mouse primary hepatocytes assessed as inhibition of glucagon-stimulated glucose production at 10 uM preincubated for 1.5 hrs followed by lactate and pyruvate addition and later stimulated with glucagon for 4 hrs; type: functional; details: Hepatocyte, time 5.5 hrs
[8] = Cytotoxicity against C57BL/6J mouse primary hepatocytes assessed as cell viability at 20 uM incubated for 24 hrs by MTT assay relative to control; type: toxicity, cell-based, Hepatocyte; details: read-out: Activity
[9] = target: Serine/threonine-protein kinase SIK1 (Mus musculus) (UniProt Q60670); assay: Activation of SIK1 in C57BL/6J mouse primary hepatocytes assessed as increase in SIK1 phosphorylation at Thr182 residue measured after 2 hrs by western blot analysis; type: cell-based; details: Primary hepatocyte, filed as activator, dose 2.5-10 µM, DDE = dose-dependent effect
Sequence of Serine/threonine-protein kinase SIK1 (Mus musculus) (Q60670 whole entry): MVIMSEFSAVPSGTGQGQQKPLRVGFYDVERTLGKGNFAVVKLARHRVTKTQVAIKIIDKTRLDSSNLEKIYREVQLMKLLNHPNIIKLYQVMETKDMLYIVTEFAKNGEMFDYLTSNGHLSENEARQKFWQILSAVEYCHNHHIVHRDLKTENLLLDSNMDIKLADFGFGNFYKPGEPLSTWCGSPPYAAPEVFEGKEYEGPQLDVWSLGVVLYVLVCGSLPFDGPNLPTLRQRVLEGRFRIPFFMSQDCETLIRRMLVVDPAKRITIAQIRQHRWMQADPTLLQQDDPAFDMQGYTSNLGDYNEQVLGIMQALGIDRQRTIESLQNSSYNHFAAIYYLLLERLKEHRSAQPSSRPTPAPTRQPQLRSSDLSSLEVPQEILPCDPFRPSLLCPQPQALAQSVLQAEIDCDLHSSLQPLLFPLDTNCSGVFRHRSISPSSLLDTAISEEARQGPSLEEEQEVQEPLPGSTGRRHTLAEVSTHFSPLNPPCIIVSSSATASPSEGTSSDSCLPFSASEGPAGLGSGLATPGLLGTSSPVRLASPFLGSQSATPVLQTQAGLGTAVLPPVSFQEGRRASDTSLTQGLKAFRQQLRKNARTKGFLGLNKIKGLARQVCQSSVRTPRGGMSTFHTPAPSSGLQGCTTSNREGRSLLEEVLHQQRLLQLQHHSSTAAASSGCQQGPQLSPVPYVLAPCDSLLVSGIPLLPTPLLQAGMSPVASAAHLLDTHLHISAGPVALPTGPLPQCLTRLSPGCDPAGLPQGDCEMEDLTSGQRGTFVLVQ

Mus musculus [10] = assay: Acute hypoglycemic activity in type 2 diabetic ob/ob mouse assessed as reduction in fasting blood glucose level at 100 mg/kg, po administered as single dose and measured for 10 hrs; type: functional, organism-based
Mus musculus [11] = assay: Anti-hyperglycemic activity in ob/ob mouse assessed as reduction in fasting blood glucose level at 100 mg/kg, po administered once daily and measured after 21 days relative to control; type: functional; details: 504 h, time 21 day
Mus musculus [12] = assay: In vivo activation of SIK1 in ob/ob mouse assessed as increase in SIK1 phosphorylation at Thr182 residue in liver at 100 mg/kg, po administered once daily for 21 days by western blot analysis; type: functional, organism-based; details: time 21.0 day
Mus musculus [13] = assay: Anti-hyperglycemic activity in ob/ob mouse assessed as reduction in non-fasting blood glucose level at 100 mg/kg, po administered once daily and measured after 8 days relative to control; type: functional; details: 192 h, time 8 day
Mus musculus [14] = assay: Anti-hyperglycemic activity in ob/ob mouse assessed as reduction in non-fasting blood glucose level at 100 mg/kg, po administered once daily and measured after 21 days relative to control; type: functional; details: 504 h, time 21 day
Mus musculus [15] = assay: In vivo activation of SIK1 in ob/ob mouse assessed as decrease in CREB phosphorylation in liver at 100 mg/kg, po administered once daily for 21 days by western blot analysis; type: functional, organism-based; details: time 21.0 day
Mus musculus [16] = assay: Anti-hyperglycemic activity in ob/ob mouse assessed as reduction in fasting blood glucose level at 100 mg/kg, po administered once daily and measured after 4 days relative to control; type: functional; details: 96 h, time 4 day

Structure (SMILES) | viability at 24 h, 100 µM [1] | viability at 24 h, 50 µM [2] | viability at 24 h, 10 µM [3] | inhibition at 2.5 µM [4] | inhibition at 5 µM [5] | viability at 24 h, 200 µM [6] | inhibition at 10 µM [7] | viability at 24 h, 20 µM [8] | further results
CC(=O)OC[C@@]12CCCC3([C@H](OCCO)OC1)[C@H]2CC[C@H]1[C@@H](C)c2ccoc2C[C@@H]13 | 92.4% | 85% | 83.2% | -2.1% | 32.1% | 14.2% | 82.7% | 78.1% | 
COC(=O)[C@]12CCCC3([C@H]1CC[C@H]1[C@@H](C)c4ccoc4C[C@@H]13)[C@H](SCCO)OC2 | 10.2% | 74.1% | 105% | 13.1% | 44.4% | 9.2% | 67.3% | 97.9% | 
COC(=O)[C@@]12CCCC3([C@H](OCCO)OC1)[C@H]2CC[C@H]1[C@@H](C)[C@@H]2CCO[C@@H]2C[C@@H]13 |  |  |  |  |  |  | 15.9% |  | 
COC(=O)[C@@]12CCC[C@]3(C(=O)OC1)[C@H]1Cc4occc4[C@H](C)[C@@H]1CC[C@@H]23 |  |  |  |  |  |  | 41.2% |  | 
COC(=O)[C@@]12CCCC3([C@H](OCCOCCO)OC1)[C@H]2CC[C@H]1[C@@H](C)c2ccoc2C[C@@H]13 | 10.6% | 12% | 28.3% | 67.3% | 93.3% | 7.9% | 95.6% | 17.4% | Activity [9]: Dde
C[C@H]1c2ccoc2C[C@H]2[C@H]1CC[C@@H]1C23CCC[C@]1(C(=O)O)CO[C@H]3OCCO |  |  |  |  |  |  | 24.3% |  | 
CCO[C@@H]1OC[C@@]2(C(=O)OC)CCCC13[C@H]2CC[C@H]1[C@@H](C)c2ccoc2C[C@@H]13 |  |  |  |  |  |  | 24.9% |  | 
COC(=O)[C@@]12CCCC3([C@H](OCCCO)OC1)[C@H]2CC[C@H]1[C@@H](C)c2ccoc2C[C@@H]13 | 12% | 14.1% | 49.7% | 32.7% | 81.8% | 9.9% | 97.5% | 20.6% | 
COC(=O)[C@@]12CCCC3([C@H](O)OC1)[C@H]2CC[C@H]1[C@@H](C)[C@@H]2CCO[C@@H]2C[C@@H]13 |  |  |  |  |  |  | 41.1% |  | 
CNC(=O)[C@@]12CCCC3([C@H](OCCO)OC1)[C@H]2CC[C@H]1[C@@H](C)c2ccoc2C[C@@H]13 | 82.6% | 85.8% | 82.9% | 9.6% | 34.2% | 76.3% | 56.6% | 84.7% | 
COC(=O)[C@@]12CCCC3([C@H](OCCCCCCO)OC1)[C@H]2CC[C@H]1[C@@H](C)c2ccoc2C[C@@H]13 | 11.3% | 28.6% | 89.3% | 33.5% | 67.2% | 11.4% | 81.8% | 81.5% | 
CCCNC(=O)[C@@]12CCCC3([C@H](OCCO)OC1)[C@H]2CC[C@H]1[C@@H](C)c2ccoc2C[C@@H]13 | 57.4% | 70.5% | 84.3% | 21.2% | 45% | 27.5% | 62.1% | 77.5% | 
CC(=O)OCCO[C@@H]1OC[C@@]2(CO)CCCC13[C@H]2CC[C@H]1[C@@H](C)c2ccoc2C[C@@H]13 | 79.9% | 77.7% | 81.7% | 25.1% | 54.4% | 14.1% | 77.3% | 84.1% | 
COC(=O)[C@@]12CCCC3([C@H](OCCCCO)OC1)[C@H]2CC[C@H]1[C@@H](C)c2ccoc2C[C@@H]13 | 18.7% | 19.8% | 54% | 47% | 95.8% | 17.6% | 92.7% | 27.5% | 
COC(=O)[C@@]12CCC[C@]3(COC1)[C@H]1Cc4occc4[C@H](C)[C@@H]1CC[C@@H]23 |  |  |  |  |  |  | 52% |  | 
COC(=O)[C@@]12CCCC3([C@H](OCCCCCO)OC1)[C@H]2CC[C@H]1[C@@H](C)c2ccoc2C[C@@H]13 | 19.3% | 17.2% | 70.1% | 32.2% | 82.7% | 18.7% | 89.2% | 33.3% | 
COC(=O)[C@@]12CCCC3([C@H](O)OC1)[C@H]2CC[C@H]1[C@@H](C)c2ccoc2C[C@@H]13 | 7.5% | 29.4% | 99% | 24.9% | 49.7% | 7.2% | 70.5% | 84.6% | Activity (Mus musculus [10]): Active; inhibition in vivo at 100 mg/kg (Mus musculus [11]): 33.3%; Activity (Mus musculus [12]): Active; inhibition in vivo at 100 mg/kg (Mus musculus [13]): 28.2%; inhibition in vivo at 100 mg/kg (Mus musculus [14]): 23.8%; Activity (Mus musculus [15]): Active; inhibition in vivo at 100 mg/kg (Mus musculus [16]): 24%
COC(=O)[C@@]12CCCC3([C@H](OCCO)OC1)[C@H]2CC[C@H]1[C@@H](C)C2=CC(=O)O[C@]2(O)C[C@@H]13 |  |  |  |  |  |  | -12.3% |  | 
COC(=O)[C@@]12CCCC3([C@H](OC)OC1)[C@H]2CC[C@H]1[C@@H](C)c2ccoc2C[C@@H]13 |  |  |  |  |  |  | 18.8% |  | 
CCNC(=O)[C@@]12CCCC3([C@H](OCCO)OC1)[C@H]2CC[C@H]1[C@@H](C)c2ccoc2C[C@@H]13 | 73.4% | 90% | 84.2% | 21.8% | 52.8% | 47.5% | 66.1% | 84.1% | 
C[C@H]1c2ccoc2C[C@H]2[C@H]1CC[C@@H]1C23CCC[C@]1(CO)CO[C@H]3OCCO | 42.2% | 63.9% | 74.8% | 41.4% | 69.4% | 13.2% | 71.1% | 69.6% | 
CCCCO[C@@H]1OC[C@@]2(C(=O)OC)CCCC13[C@H]2CC[C@H]1[C@@H](C)c2ccoc2C[C@@H]13 |  |  |  |  |  |  | 36.2% |  | 
COC(=O)[C@@]12CCCC3([C@H](OCCOCCOCCOCCO)OC1)[C@H]2CC[C@H]1[C@@H](C)c2ccoc2C[C@@H]13 | 11% | 12.9% | 48.9% | 63.1% | 87.8% | 7.9% | 111% | 25.4% | Activity [9]: Dde
COC(=O)[C@]12CCC[C@]3(COC1)[C@H]1C[C@H]4OCC[C@H]4[C@H](C)[C@@H]1CC[C@@H]23 |  |  |  |  |  |  | 36.3% |  | 
COC(=O)[C@@]12CCCC3([C@H](OCCOCCOCCO)OC1)[C@H]2CC[C@H]1[C@@H](C)c2ccoc2C[C@@H]13 | 10.3% | 12.1% | 40.5% | 47.2% | 97.4% | 8.1% | 97.1% | 23.4% | 
